Results published in patent US20100004169A1, “CCN3 peptide” (The Queen's University of Belfast, priority 2006, published 2010).
d = 2'-deoxy (DNA); r = 2'-OH (RNA)

B1: recombinant CCN3: recombinant CCN3 protein from Peprotech EC, London, UK (protein, UniProt P48745 32-357, looked up)
CCN family member 3: TQRCPPQCPGRCPATPPTCAPGVRAVLDGCSCCLVCARQRGESCSDLEPCDESSGLYCDRSADPSNQTGICTAVEGDNCVFDGVIYRSGEKFQPSCKFQCTCRDGQIGCVPRCQLDVLLPEPNCPAPRKVEVPGECCEKWICGPDEEDSLGGLTLAAYRPEATLGVEVSDSSVNCIEQTTEWTACSKSCGMGFSTRVTNRNRQCEMLKQTRLCMVRPCEQEPEQPTDKKGKKCLRTKKSLKAIHLQFKNCTSLHTYKPRFCGVCSDGRCCTPHNTKTIQAEFQCSPGQIVKKPVMVIGTCTCHTNCPKNNEAFLQELELKTTRGKM

What was measured:
[1] = test system: CCN3; test: Real-time PCR of CCN3 in bone marrow of CML patients at diagnosis and following treatment; format: in vivo, human; details: three CML patients, diagnosis vs following treatment
Text: Leukemia. 2003; 17:2474-2486).

[2] = test system: CCN3; test: Western blot of cellular and secreted CCN3 in CD34+ cells from CML patients treated in vitro; format: cell-based, human; details: CD34+ cells from three CML patients at diagnosis, imatinib 1 μM, 72 hours in vitro
[3] = test system: CCN3; test: Real-time PCR of CCN3 expression in CML cell lines (K562) after treatment; format: cell-based, human; details: for CCN3 expression (in words): CML cell lines; for mean Ct change for CCN3: n=3
Method: (§1) K562 cells were nucleofected following the manufacturer's instructions using the Cell Line Nucleofector Kit V, program T-16 (Amaxa GmbH, Cologne, Germany) and transfected with either the appropriate si-RNA, a scrambled si-RNA sequence or a non-silencing fluorescently labeled si-RNA (Amaxa GmbH) to monitor transfection efficiency. […] Leukemia.
(§2) RQ-PCR was performed with an ABI PRISM 7700 Sequence Detector which exploits TaqMan probe based chemistry (Applied Biosystems, Foster City, Calif.). The 5′ reporter used was 6-carboxyfluorescein (FAM) and the 3′ quencher was 6-carboxy-tetramethylrhodamine (TAMRA). Primers and probes for CCN3 were designed against GenBank published sequences in association with Primer Express (Applied Biosystems). […] Leukemia. […] Amplifications were performed following an initial 2-minute incubation at 50° C. to allow uracil-N-glycosylase (UNG) to destroy any contaminating […], followed by treatment at 95° C. for 10 minutes to inactivate the UNG enzyme and activate the AmpliTaq Gold DNA polymerase. This was followed by 40 to 45 cycles of denaturing at 95° C. for 15 seconds and annealing/extension at 60° C. for 1 minute. Data were collected and analysed with Sequence Detector v1.6.3 software (Applied Biosystems).

[4] = test system: CCN3; test: Extracellular (secreted) CCN3 protein levels in K562 after siRNA to BCR-ABL; format: cell-based, human; details: K562 cells, n=3
Method: Protein was extracted from cells by suspending in RIPA buffer (1×PBS, 1% Nonidet NP-40, 0.1% SDS) containing a cocktail of protease Inhibitors (Complete Mini Cocktail, Roche Diagnostics Ltd, Lewes, UK) at a concentration of 10^7 cells/mL and lysing for 10 minutes on ice. Samples were sonicated for 10 seconds to ensure complete lysis, centrifuged at 10,000 g at 4° C. for 10 minutes and the supernatant removed for analysis. Total protein content was determined by the […] using the BCA protein assay kit (Pierce, Cramlington, UK). Protein (15 μg) was loaded onto a pre-cast Bis-Tris polyacrylamide gel (10%) using the Novex mini gel system (Invitrogen, Paisley, UK) and subsequently transferred to a PVDF membrane. CCN3 expression was detected using an antibody raised against the C terminus of CCN3. Equivalent protein loading was controlled by monitoring actin expression using a pan-actin antibody (Cell Signalling Technology Inc, MA). Immunoblots were visualised by enhanced chemiluminescence (Supersignal, Pierce). Optical densitometry was performed using the […] (Ultra-Violet Products Ltd., Cambridge, UK) and corrected for protein loading. CCN3 protein is glycosylated and binds to heparin. Medium in which ts BCR-ABL FDCP-Mix or control cells had been grown for 24 hours was harvested and enriched for CCN3 protein using heparin sepharose. […]

[5] = test system: BCR-ABL; test: Real-time PCR of BCR-ABL expression in CML cell lines (K562) after treatment; format: cell-based, human
Method: as §1, §2

[6] = test system: K562 cells; test: Flow cytometric cell cycle analysis (sub-G0) of K562 cells treated with exogenous recombinant CCN3; format: cell-based, human; details: 100 ng/ml CCN3, 48 hours
Method: K562 cells (1×10^6 cells/well) were treated with recombinant CCN3 (100 ng/ml, Peprotech EC, London, UK) in vitro for 48 hours. Cells were then fixed in 70% ethanol for flow cytometric analysis of cell cycle status as before.

[7] = K562 cells, siRNA 0.5 μg/10^8 cells, 24 hours

Molecule	CCN3 expression following treatment (in words) [1]	cellular and secreted CCN3 expression (in words) [2]	CCN3 expression (in words) [3]	mean Ct change for CCN3 ([3]; K562 cells, 1 μM imatinib, 96 hours)	decrease in secreted levels of CCN3 protein [4] [%]	fold increase in CCN3 [3, 7] [fold]	mean Ct change for CCN3 ([3]; K562 cells, siRNA to BCR-ABL)	BCR-ABL expression (in words) ([5]; CML cell lines)	fold decrease in BCR-ABL [5, 7] [fold]	mean Ct change for BCR-ABL ([5]; K562 cells, siRNA to BCR-ABL, n=3)	sub-G0 peak [6] [%]
Cc1ccc(NC(=O)c2ccc(CN3CCN(C)CC3)cc2)cc1Nc1nccc(-c2cccnc2)n1 [imatinib]	reciprocal rise in CCN3	significant increase in both cellular and secreted CCN3 expression	increased CCN3 expression	2.1±0.2	–	–	–	–	–	–	–
si-RNA directed against BCR-ABL: 21-base si-RNA directed against the fusion sequence of BCR-ABL, SEQ ID NO 9 sense, SEQ ID NO 10 antisense (sense GCAGAGUUCAAAAGCCCUUTT; antisense AAGGGCUUUUGAACUCUGCTT; sugars from the 5' end r19 d2, backbone not given here)	–	–	increased CCN3 expression	–	33±5	6.1	2.6±0.5	significantly reduced BCR-ABL	3.7	1.9±0.2	–
B1	–	–	–	–	–	–	–	–	–	–	23.7±6.9
